Here are results for two compounds from patent US20250177469A1, “SANGUISORBA OFFICINALIS LINNE EXTRACT COMPOSITION INHIBITING 3CL PROTEASE AND RDRP ACTIVITY OF SARS-COV-2” (QGENETICS CO., LTD., priority 2021, published 2025).

The assay has as its system SARS-CoV-2. Kind of assay: CPE inhibition of SARS-CoV-2 in VERO-E6 cells. Type of assay: cell-based. The following applies: 200 TCID50, 3 days, average of three repeats, FIG. 4.

`CC(C)C[C@H](NC(=O)OCc1ccccc1)C(=O)N[C@@H](C[C@@H]1CCNC1=O)C(O)S(=O)(=O)[O-].[Na+]` (some centres unmarked) [GC376]: the “average CPE inhibition value” was 3.125 µg/mL.

For `CCC(CC)COC(=O)[C@H](C)N[P@](=O)(OC[C@H]1O[C@@](C#N)(c2ccc3c(N)ncnn23)[C@H](O)[C@@H]1O)Oc1ccccc1` [remdesivir], the “average CPE inhibition value” was 8.333 µg/mL.
